This note sets out measurements from patent publication US10590078B2, “Sodium channel blockers” (Daewoong Pharmaceutical Co., Ltd., priority 2015, dated 2020).

Structures are written as SMILES. pIC50: −log10 of the molar value. Like-named read-outs stand apart in the source and are kept apart here.

For orientation: pIC50 means the negative decadic logarithm of the IC50, by convention in mol/L.

The experiment has as its target human sodium ion channel 1.7 (hNav1.7) (Homo sapiens, UniProt Q15858). As to the kind of experiment: Blocking effect against sodium ion channel Nav1.7, IonFlux16 auto patch clamp in hNav1.7 HEK293 cells. Type of experiment: cell-based.
[1] abbreviates: hNav1.7 HEK293 cells, inhibition of peak current after 50 seconds treatment, eight concentrations, read-out: IC50.

Sequence of human sodium ion channel 1.7 (hNav1.7) (Q15858 whole entry): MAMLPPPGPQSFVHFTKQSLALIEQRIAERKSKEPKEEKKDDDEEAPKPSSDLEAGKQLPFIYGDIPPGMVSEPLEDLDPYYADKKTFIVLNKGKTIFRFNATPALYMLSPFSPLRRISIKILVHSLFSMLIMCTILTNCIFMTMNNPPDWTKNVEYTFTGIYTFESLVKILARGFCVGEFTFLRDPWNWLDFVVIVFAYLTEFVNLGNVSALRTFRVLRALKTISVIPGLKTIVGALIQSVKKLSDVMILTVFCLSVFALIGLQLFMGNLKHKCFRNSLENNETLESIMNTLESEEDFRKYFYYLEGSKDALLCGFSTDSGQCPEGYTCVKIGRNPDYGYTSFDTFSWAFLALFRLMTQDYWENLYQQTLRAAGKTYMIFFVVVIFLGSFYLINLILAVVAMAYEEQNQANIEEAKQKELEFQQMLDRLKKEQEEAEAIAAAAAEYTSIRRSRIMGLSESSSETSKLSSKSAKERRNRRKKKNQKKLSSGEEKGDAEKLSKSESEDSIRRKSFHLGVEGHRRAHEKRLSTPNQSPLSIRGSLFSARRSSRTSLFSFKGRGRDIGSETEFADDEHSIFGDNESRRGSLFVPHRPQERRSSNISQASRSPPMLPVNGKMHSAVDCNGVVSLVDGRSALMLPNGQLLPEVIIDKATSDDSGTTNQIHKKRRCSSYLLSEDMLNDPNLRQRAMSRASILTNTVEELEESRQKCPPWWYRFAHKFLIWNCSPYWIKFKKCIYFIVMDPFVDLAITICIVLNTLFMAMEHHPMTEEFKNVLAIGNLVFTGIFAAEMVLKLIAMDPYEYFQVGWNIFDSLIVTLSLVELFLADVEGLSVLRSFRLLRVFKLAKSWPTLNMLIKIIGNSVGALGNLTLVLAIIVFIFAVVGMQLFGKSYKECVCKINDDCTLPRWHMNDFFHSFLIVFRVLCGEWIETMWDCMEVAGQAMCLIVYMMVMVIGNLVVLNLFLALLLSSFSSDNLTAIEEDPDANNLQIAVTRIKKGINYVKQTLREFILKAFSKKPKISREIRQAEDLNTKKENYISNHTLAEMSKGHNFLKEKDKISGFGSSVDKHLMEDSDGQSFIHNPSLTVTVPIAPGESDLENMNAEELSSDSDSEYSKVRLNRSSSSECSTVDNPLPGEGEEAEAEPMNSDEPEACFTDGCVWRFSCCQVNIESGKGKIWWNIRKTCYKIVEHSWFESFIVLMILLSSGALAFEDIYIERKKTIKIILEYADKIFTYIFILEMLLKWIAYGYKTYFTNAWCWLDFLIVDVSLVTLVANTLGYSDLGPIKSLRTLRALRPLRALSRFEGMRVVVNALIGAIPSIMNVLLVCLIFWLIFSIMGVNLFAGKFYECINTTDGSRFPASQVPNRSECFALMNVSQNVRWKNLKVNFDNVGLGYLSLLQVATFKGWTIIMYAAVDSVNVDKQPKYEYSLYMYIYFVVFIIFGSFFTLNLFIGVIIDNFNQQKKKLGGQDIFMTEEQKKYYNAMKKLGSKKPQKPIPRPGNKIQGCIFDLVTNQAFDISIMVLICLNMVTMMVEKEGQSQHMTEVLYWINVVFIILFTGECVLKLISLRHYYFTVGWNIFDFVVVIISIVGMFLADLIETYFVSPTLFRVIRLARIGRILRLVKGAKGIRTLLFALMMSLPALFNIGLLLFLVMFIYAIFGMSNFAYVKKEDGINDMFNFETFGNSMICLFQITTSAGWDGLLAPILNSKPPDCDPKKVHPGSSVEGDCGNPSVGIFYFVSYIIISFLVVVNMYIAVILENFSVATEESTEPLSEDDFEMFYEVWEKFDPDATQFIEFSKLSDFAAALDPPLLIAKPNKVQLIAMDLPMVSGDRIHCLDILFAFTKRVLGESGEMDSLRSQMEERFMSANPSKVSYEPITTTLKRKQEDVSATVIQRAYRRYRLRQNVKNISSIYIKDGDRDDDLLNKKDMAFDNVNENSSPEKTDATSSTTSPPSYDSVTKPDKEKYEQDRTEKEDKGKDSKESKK

`CS(=O)(=O)NC(=O)c1cc(Cl)c(-n2nc(-c3cccc(Cl)c3F)c3cc(Cl)ccc32)cc1F` [Example 79, 5-chloro-4-(5-chloro-3-(3-chloro-2-fluorophenyl)-1H-indazol-1-yl)-2-fluoro-N-(methylsulfonyl)benzamide] had a negative-log IC50 (pIC50) of 7.15.
As to `CC(C)(C)OC(=O)N1CC=C(c2nn(-c3cc(F)c(C(=O)NS(C)(=O)=O)cc3Cl)c3ccc(Cl)cc23)CC1` [Example 131, tert-butyl 4-(5-chloro-1-(2-chloro-5-fluoro-4-((methylsulfonyl)carbamoyl)phenyl)-1H-indazol-3-yl)-3,6-dihydropyridine-1(2H)-carboxylate], the negative-log IC50 (pIC50) under setting [1] is 5.59.
On the same count and under the same terms, the result for `CS(=O)(=O)NC(=O)c1cc(Cl)c(-n2nc(Cl)c3cc(-c4cccc(C(F)(F)F)c4)ccc32)cc1F` [Example 249, 5-chloro-4-(3-chloro-5-(3-(trifluoromethyl)phenyl)-1H-indazol-1-yl)-2-fluoro-N-(methylsulfonyl)benzamide] reads 7.13; that for `CC(Oc1ccc2c(c1)c(Cl)nn2-c1cc(F)c(C(=O)NS(C)(=O)=O)cc1Cl)c1ccc(F)cc1` (stereo not drawn) [Example 39, 5-chloro-4-(3-chloro-5-(1-(4-fluorophenyl)ethoxy)-1H-indazol-1-yl)-2-fluoro-N-(methylsulfonyl)benzamide], 6.55.
Consider `CS(=O)(=O)NC(=O)c1cc(Cl)c(-n2nc(Cl)c3cc(OCC4CCCCC4)ccc32)cc1F` [Example 34, 5-chloro-4-(3-chloro-5-(cyclohexylmethoxy)-1H-indazol-1-yl)-2-fluoro-N-(methylsulfonyl)benzamide], for which the negative logarithm of the IC50 (pIC50) under setting [1] was 6.68.
On the same count and under the same terms, the value for `COc1ccc2c(c1)c(-c1ccc(Cl)cc1F)nn2-c1cc(F)c(C(=O)NS(C)(=O)=O)cc1Cl` [Example 169, 5-chloro-4-(3-(4-chloro-2-fluorophenyl)-5-methoxy-1H-indazol-1-yl)-2-fluoro-N-(methylsulfonyl)benzamide] was 6.74; that for `CS(=O)(=O)NC(=O)c1cc(Cl)c(-n2nc(-c3cc(Cl)ccc3F)c3cc(Cl)ccc32)cc1F` [Example 69, 5-chloro-4-(5-chloro-3-(5-chloro-2-fluorophenyl)-1H-indazol-1-yl)-2-fluoro-N-(methylsulfonyl)benzamide] was 7.43.
With `CS(=O)(=O)NC(=O)c1cc(Cl)c(-n2cc(-c3ccccc3Cl)c3cccnc32)cc1F` [Example 225, 5-chloro-4-(3-(2-chlorophenyl)-1H-pyrrolo[2,3-b]pyridin-1-yl)-2-fluoro-N-(methylsulfonyl)benzamide], the pIC50 under setting [1] was 6.34.
Consider `CS(=O)(=O)NC(=O)c1cc(Cl)c(-n2nc(-c3cnccc3F)c3ccccc32)cc1F` [Example 177, 5-chloro-2-fluoro-4-(3-(4-fluoropyridin-3-yl)-1H-indazol-1-yl)-N-(methylsulfonyl)benzamide], for which the negative logarithm of the IC50 (pIC50) under setting [1] was 6.01.
Same read-out and setting: the value for `CS(=O)(=O)NC(=O)c1cc(Cl)c(-n2cc(-c3ccccc3F)c3cc(Cl)cnc32)cc1F` [Example 191, 5-chloro-4-(5-chloro-3-(2-fluorophenyl)-1H-pyrrolo[2,3-b]pyridin-1-yl)-2-fluoro-N-(methylsulfonyl)benzamide] was 6.96; that for `CS(=O)(=O)NC(=O)c1ccc(-n2nc(-c3ccc(C(F)(F)F)cc3)c3cc(Cl)ccc32)c(F)c1` [Example 122, 4-(5-chloro-3-(4-(trifluoromethyl)phenyl)-1H-indazol-1-yl)-3-fluoro-N-(methylsulfonyl)benzamide] was 6.51; that for `CN(C)S(=O)(=O)NC(=O)c1cc(Cl)c(-n2nc(Cl)c3cc(Cl)ccc32)cc1F` [Example 7, 5-chloro-4-(3,5-dichloro-1H-indazol-1-yl)-N—(N,N-dimethylsulfamoyl)-2-fluorobenzamide] was 6.64.
Take `CS(=O)(=O)NC(=O)c1cc(Cl)c(-n2nc(Cl)c3cc(-c4ccc(F)cc4F)ccc32)cc1F` [Example 243, 5-chloro-4-(3-chloro-5-(2,4-difluorophenyl)-1H-indazol-1-yl)-2-fluoro-N-(methylsulfonyl)benzamide]: under setting [1], the pIC50 was 6.76.
Same read-out and setting: the value for `Cc1nn(-c2cc(F)c(C(=O)NS(C)(=O)=O)cc2Cl)c2ccc([N+](=O)[O-])cc12` [Example 14, 5-chloro-2-fluoro-4-(3-methyl-5-nitro-1H-indazol-1-yl)-N-(methylsulfonyl)benzamide] was 5.00 to 5.52.
The same measure, in the same setting: the result for `Cn1nccc1-c1nn(-c2cc(F)c(S(=O)(=O)Nc3cscn3)cc2Cl)c2ccc(Cl)cc12` [Example 282, 5-chloro-4-(5-chloro-3-(1-methyl-1H-pyrazol-5-yl)-1H-indazol-1-yl)-2-fluoro-N-(thiazol-4-yl)benzenesulfonamide] reads 5.78.
`CS(=O)(=O)NC(=O)c1cc(Cl)c(-n2cc(-c3cccc(Cl)c3F)c3cc(F)cnc32)cc1F` [Example 211, 5-chloro-4-(3-(3-chloro-2-fluorophenyl)-5-fluoro-1H-pyrrolo[2,3-b]pyridin-1-yl)-2-fluoro-N-(methylsulfonyl)benzamide] showed a pIC50 of 7.40.
For the compound `CS(=O)(=O)NC(=O)c1cc(Cl)c(-n2nc(-c3ccccc3)c3cc(C4CC4)ccc32)cc1F` [Example 26, 5-chloro-4-(5-cyclopropyl-3-phenyl-1H-indazol-1-yl)-2-fluoro-N-(methylsulfonyl)benzamide], the negative-log IC50 (pIC50) under setting [1] is 7.00.
Still for that read-out and setting: the result for `CS(=O)(=O)NC(=O)c1cc(Cl)c(-n2nc(/C=C/c3ccccc3Cl)c3cc(Cl)ccc32)cc1F` [Example 136, (E)-5-chloro-4-(5-chloro-3-(2-chlorostyryl)-1H-indazol-1-yl)-2-fluoro-N-(methylsulfonyl)benzamide] reads 6.00.
`CS(=O)(=O)NC(=O)c1cc(Cl)c(-n2nc(Cl)c3cc(-c4ccncc4)ccc32)cc1F` [Example 232, 5-chloro-4-(3-chloro-5-(pyridin-4-yl)-1H-indazol-1-yl)-2-fluoro-N-(methylsulfonyl)benzamide]: the pIC50 under setting [1] was 5.52 to 6.00.
As for `CS(=O)(=O)NC(=O)c1cc(F)c(-n2nc(-c3cccc(F)c3)c3cc(Cl)ccc32)cc1Cl` [Example 114, 2-chloro-4-(5-chloro-3-(3-fluorophenyl)-1H-indazol-1-yl)-5-fluoro-N-(methylsulfonyl)benzamide], the pIC50 under setting [1] is 5.84.
Same read-out and setting: the result for `CS(=O)(=O)NC(=O)c1ccc(-n2cc(-c3ccc(F)cc3)c3cc(Cl)ccc32)nc1` [Example 275, 6-(5-chloro-3-(4-fluorophenyl)-1H-indol-1-yl)-N-(methylsulfonyl)nicotinamide] reads 5.91; that for `CS(=O)(=O)NC(=O)c1cc(Cl)c(-n2ncc3cc(Cl)ccc32)cc1F` [Example 2, 5-chloro-4-(5-chloro-1H-indazol-1-yl)-2-fluoro-N-(methylsulfonyl)benzamide], 5.27.
Still for that read-out and setting: the value for `CS(=O)(=O)NC(=O)c1ccc(-n2nc(-c3cccc(C#N)c3)c3cc(F)ccc32)c(C#N)c1` [Example 168, 3-cyano-4-(3-(3-cyanophenyl)-5-fluoro-1H-indazol-1-yl)-N-(methylsulfonyl)benzamide] was less than 5.00; that for `CS(=O)(=O)NC(=O)c1cc(Cl)c(-n2nc(-c3ccc([N+](=O)[O-])cc3)c3cc(Cl)ccc32)cc1F` [Example 81, 5-chloro-4-(5-chloro-3-(4-nitrophenyl)-1H-indazol-1-yl)-2-fluoro-N-(methylsulfonyl)benzamide] was 6.62; that for `Cn1nccc1-c1ccc2c(c1)c(Cl)nn2-c1cc(F)c(S(=O)(=O)Nc2cscn2)cc1Cl` [Example 286, 5-chloro-4-(3-chloro-5-(1-methyl-1H-pyrazol-5-yl)-1H-indazol-1-yl)-2-fluoro-N-(thiazol-4-yl)benzenesulfonamide] was 5.00 to 5.52.
Consider `COc1ccc(-c2nn(-c3cc(Cl)c(C(=O)NS(C)(=O)=O)cc3F)c3ccc(Cl)cc23)cc1` [Example 108, 2-chloro-4-(5-chloro-3-(4-methoxyphenyl)-1H-indazol-1-yl)-5-fluoro-N-(methylsulfonyl)benzamide], for which, under setting [1], the pIC50 was 5.83.
`CS(=O)(=O)NC(=O)c1cc(Cl)c(-n2cc(-c3cccc(C#N)c3)c3cc(Cl)cnc32)cc1F` [Example 194, 5-chloro-4-(5-chloro-3-(3-cyanophenyl)-1H-pyrrolo[2,3-b]pyridin-1-yl)-2-fluoro-N-(methylsulfonyl)benzamide]: under setting [1], the pIC50 was 6.32.
On the same count and under the same terms, the result for `CS(=O)(=O)NC(=O)c1cc(Cl)c(-n2nc(-c3ccccc3F)c3cc(Cl)ccc32)cc1F` [Example 53, 5-chloro-4-(5-chloro-3-(2-fluorophenyl)-1H-indazol-1-yl)-2-fluoro-N-(methylsulfonyl)benzamide] reads 7.48; that for `Cn1nccc1-c1ccc2c(c1)c(Cl)nn2-c1cc(F)c(C(=O)NS(C)(=O)=O)cc1Cl` [Example 256, 5-chloro-4-(3-chloro-5-(1-methyl-1H-pyrazol-5-yl)-1H-indazol-1-yl)-2-fluoro-N-(methylsulfonyl)benzamide], 5.40.
The same measure, in the same setting: the result for `CS(=O)(=O)NC(=O)c1cc(Cl)c(-n2nc(Cl)c3cc(-c4cc(C#N)ccc4F)ccc32)cc1F` [Example 238, 5-chloro-4-(3-chloro-5-(5-cyano-2-fluorophenyl)-1H-indazol-1-yl)-2-fluoro-N-(methylsulfonyl)benzamide] reads 6.47.
Still for that read-out and setting: the result for `CS(=O)(=O)NC(=O)c1ccc(-n2nc(-c3ccccc3F)c3cc(Cl)ccc32)c(C#N)c1` [Example 102, 4-(5-chloro-3-(2-fluorophenyl)-1H-indazol-1-yl)-3-cyano-N-(methylsulfonyl)benzamide] reads 5.92; that for `CS(=O)(=O)NC(=O)c1cc(Cl)c(-n2cc(-c3ccccc3Cl)c3cc(Cl)cnc32)cc1F` [Example 198, 5-chloro-4-(5-chloro-3-(2-chlorophenyl)-1H-pyrrolo[2,3-b]pyridin-1-yl)-2-fluoro-N-(methylsulfonyl)benzamide], 6.77; that for `Fc1cc(-n2nc(-c3ccc(Cl)cc3F)c3cc(Cl)ccc32)c(Cl)cc1-c1nnn[nH]1` [Example 289, 5-chloro-3-(4-chloro-2-fluorophenyl)-1-(2-chloro-5-fluoro-4-(1H-tetrazol-5-yl)phenyl)-1H-indazole], less than 5.00.
